# In US20170291905A1, “ARGININE […] INHIBITORS AND USES THEREOF” (Epizyme, Inc., priority 2014, published 2017):
# Target: full-length human PRMT8 isoform 1 (Homo sapiens, UniProt Q9NR22)
# Assay: PRMT8 biochemical assay (3H-SAM Flashplate, histone H4 31-45 peptide)
# Settings: 1.5 nM PRMT8, 30 min preincubation, 150 nM peptide
# Procedure, shortened: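 Purified untagged full-length PRMT8 (1.5 nM) preincubated with compound 30 min at room temperature in 20 mM Bicine pH 7.6, then reacted with 150 nM biotinylated H4 peptide, 50 nM 3H-SAM plus 550 nM SAM, 2% DMSO. Stopped with 400 uM cold SAM; peptide captured on streptavidin Flashplate, counted; % inhibition vs DMSO/SAH controls fitted for IC50.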
# Chain of full-length human PRMT8 isoform 1 (Q9NR22 whole entry, canonical isoform): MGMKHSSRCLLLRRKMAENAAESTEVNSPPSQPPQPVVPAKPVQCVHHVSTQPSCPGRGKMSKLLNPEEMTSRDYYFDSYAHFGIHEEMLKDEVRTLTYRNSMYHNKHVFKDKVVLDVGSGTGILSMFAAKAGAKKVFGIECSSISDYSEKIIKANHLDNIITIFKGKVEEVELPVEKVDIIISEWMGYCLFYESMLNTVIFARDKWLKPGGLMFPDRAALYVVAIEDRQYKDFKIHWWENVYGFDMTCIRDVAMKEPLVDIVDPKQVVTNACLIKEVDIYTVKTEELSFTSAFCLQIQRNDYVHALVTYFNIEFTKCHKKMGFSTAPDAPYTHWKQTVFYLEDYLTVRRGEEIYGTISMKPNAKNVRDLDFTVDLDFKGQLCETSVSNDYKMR
row,Compound,IC50
1,"CCOCCOCC1(COCCOCC)CCC(c2n[nH]cc2CN(C)CCNC)CC1 [compound 39, N1-((3-(4,4-bis((2-ethoxyethoxy)methyl)cyclohexyl)-1H-pyrazol-4-yl)methyl)-N1,N2-dimethylethane-1,2-diamine]",139 nM
2,CNCCN(C)Cc1c[nH]nc1C1CCC(COCCC2CCOCC2)(COCCC2CCOCC2)CC1 [compound 40],45.5 nM
3,"CN(C)CCN(C)Cc1c[nH]nc1[C@H]1CC[C@@]2(CC1)CC(C)(C)CO2 [compound 42, N1-((3-((5S,8S)-3,3-dimethyl-1-oxaspiro[4.5]decan-8-yl)-1H-pyrazol-4-yl)methyl)-N1,N2,N2-trimethylethane-1,2-diamine]",33.8 nM
4,CNCCN(C)Cc1c[nH]nc1C1CCC(COC)(COCC2CCOCC2)CC1 (stereo not drawn) [compound 45],11.2 nM
5,"CNCCN(C)Cc1c[nH]nc1C1=CCC2(CC1)CC(C)(C)CO2 (stereo not drawn) [compound 46, N1-((3-(3,3-dimethyl-1-oxaspiro[4.5]dec-7-en-8-yl)-1H-pyrazol-4-yl)methyl)-N1,N2-dimethylethane-1,2-diamine]",24.6 nM
6,"CCC1(CC)C[C@]2(CC[C@H](c3n[nH]cc3CN(C)CCNC)CC2)NC1=O [compound 47, (5s,8s)-3,3-diethyl-8-(4-((methyl(2-(methylamino)ethyl)amino)methyl)-1H-pyrazol-3-yl)-1-azaspiro[4.5]decan-2-one]",14.9 nM

# Continued by falling IC50, values first:
row,IC50,Compound
1,97.2 nM,"CN(C)CCN(C)Cc1c[nH]nc1[C@H]1CC[C@]2(CC1)CC(C)(C)CO2 [compound 43, N1-((3-((5r,8r)-3,3-dimethyl-1-oxaspiro[4.5]decan-8-yl)-1H-pyrazol-4-yl)methyl)-N1,N2,N2-trimethylethane-1,2-diamine]"
2,70.6 nM,"CCC1(CC)C[C@]2(CC[C@@H](c3n[nH]cc3CN(C)CCNC)CC2)NC1=O [compound 48, (5r,8r)-3,3-diethyl-8-(4-((methyl(2-(methylamino)ethyl)amino)methyl)-1H-pyrazol-3-yl)-1-azaspiro[4.5]decan-2-one]"
3,34.4 nM,"CNCCN(C)Cc1c[nH]nc1C1CCC(CO)(CO)CC1 [compound 44, (4-(4-((methyl(2-(methylamino)ethyl)amino)methyl)-1H-pyrazol-3-yl)cyclohexane-1,1-diyl)dimethanol]"
4,16.7 nM,"CNCCN(C)Cc1ccnn1[C@H]1CC[C@@]2(CC1)CC(C)(C)CO2 [compound 49, N1-((1-((5s,8s)-3,3-dimethyl-1-oxaspiro[4.5]decan-8-yl)-1H-pyrazol-5-yl)methyl)-N1,N2-dimethylethane-1,2-diamine]"
5,11.1 nM,CC[C@H]1CC[C@@H](c2n[nH]cc2CN(C)CCNC)CC1 [compound 1]
6,9.27 nM,"CNCCN(C)Cc1c[nH]nc1C1CCC(COCC2CC2)(COCC2CC2)CC1 [compound 41, N1-((3-(4,4-bis((cyclopropylmethoxy)methyl)cyclohexyl)-1H-pyrazol-4-yl)methyl)-N1,N2-dimethylethane-1,2-diamine]"
